# Experimental data from patent publication US20100204265A1 (priority 2009, published 2010).
# Test system: ET (Huh-lucubineo-ET) cell line harboring I389luc-ubi-neo/NS3-3′/ET HCV replicon
# Assay: Replicon assay (HCV replicon, luciferase readout)
# Format: cell-based
# Conditions: Hepatitis C virus
# Summary of the method: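 Compounds at 10-point 2-fold dilutions (overall 0.1 nM to […], 0.5% DMSO) were applied to ET cells carrying a luciferase-neo HCV replicon, seeded a day earlier. After 48-72 hours, luciferase-based % inhibition was fitted with a Hill equation for EC50, and parallel WST-1 readings gave TC50.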
row,SMILES,EC50 [µM]
1,"COC(=O)CNC(=O)c1cn2cc(-c3ccoc3)cc(C(F)(F)F)c2n1 [Compound 246, [(6-Furan-3-yl-8-trifluoromethyl-imidazo[1,2-a]pyridine-2-carbonyl)-amino]-acetic acid methyl ester]",> 50
2,"NC(=O)CNC(=O)c1cn2cc(-c3ccoc3)cc(C(F)(F)F)c2n1 [Compound 247, 6-Furan-3-yl-8-trifluoromethyl-imidazo[1,2-a]pyridine-2-carboxylic acid carbamoylmethyl-amide]",> 50
3,"CNC(=O)CNC(=O)c1cn2cc(-c3ccoc3)cc(C(F)(F)F)c2n1 [Compound 248, 6-Furan-3-yl-8-trifluoromethyl-imidazo[1,2-a]pyridine-2-carboxylic acid methylcarbamoylmethyl-amide]",> 50
4,"CN(C)C(=O)CNC(=O)c1cn2cc(-c3ccoc3)cc(C(F)(F)F)c2n1 [Compound 249, 6-Furan-3-yl-8-trifluoromethyl-imidazo[1,2-a]pyridine-2-carboxylic acid dimethylcarbamoylmethyl-amide]",> 50
5,"COC(=O)C(C)NC(=O)c1cn2cc(-c3ccoc3)cc(C(F)(F)F)c2n1 (centres unmarked) [Compound 250, 2-[(6-Furan-3-yl-8-trifluoromethyl-imidazo[1,2-a]pyridine-2-carbonyl)-amino]-propionic acid methyl ester]",> 50
6,"COC(=O)C(CCSC)NC(=O)c1cn2cc(-c3ccoc3)cc(C(F)(F)F)c2n1 (centres unmarked) [Compound 251, 2-[(6-Furan-3-yl-8-trifluoromethyl-imidazo[1,2-a]pyridine-2-carbonyl)-amino]-4-methylsulfanyl-butyric acid methyl ester]",> 50
7,"COC(=O)C(CO)NC(=O)c1cn2cc(-c3ccoc3)cc(C(F)(F)F)c2n1 (centres unmarked) [Compound 252, 2-[(6-Furan-3-yl-8-trifluoromethyl-imidazo[1,2-a]pyridine-2-carbonyl)-amino]-3-hydroxy-propionic acid methyl ester]",> 50
8,"COC(=O)C(NC(=O)c1cn2cc(-c3ccoc3)cc(C(F)(F)F)c2n1)C(C)O (centres unmarked) [Compound 253, 2-[(6-Furan-3-yl-8-trifluoromethyl-imidazo[1,2-a]pyridine-2-carbonyl)-amino]-3-hydroxy-butyric acid methyl ester]",> 50
9,"COC(=O)C1CCCN1C(=O)c1cn2cc(-c3ccoc3)cc(C(F)(F)F)c2n1 (centres unmarked) [Compound 254, 1-(6-Furan-3-yl-8-trifluoromethyl-imidazo[1,2-a]pyridine-2-carbonyl)-pyrrolidine-2-carboxylic acid methyl ester]",> 50
10,"COC(=O)C(NC(=O)c1cn2cc(-c3ccoc3)cc(C(F)(F)F)c2n1)c1ccccc1 (centres unmarked) [Compound 255, [(6-Furan-3-yl-8-trifluoromethyl-imidazo[1,2-a]pyridine-2-carbonyl)-amino]-phenyl-acetic acid methyl ester]",> 50
11,"COC(=O)C(NC(=O)c1cn2cc(-c3ccoc3)cc(C(F)(F)F)c2n1)C(C)C (centres unmarked) [Compound 256, 2-[(6-Furan-3-yl-8-trifluoromethyl-imidazo[1,2-a]pyridine-2-carbonyl)-amino]-3-methyl-butyric acid methyl ester]",> 50
12,"COC(=O)C(CCCCNC(=O)OC(C)(C)C)NC(=O)c1cn2cc(-c3ccoc3)cc(C(F)(F)F)c2n1 (centres unmarked) [Compound 257, 6-tert-Butoxycarbonylamino-2-[(6-furan-3-yl-8-trifluoromethyl-imidazo[1,2-a]pyridine-2-carbonyl)-amino]-hexanoic acid methyl ester]",> 50
13,"NCCc1cn2cc(-c3ccoc3)cc(C(F)(F)F)c2n1 [Compound 258, 2-(6-Furan-3-yl-8-trifluoromethyl-imidazo[1,2-a]pyridin-2-yl)-ethylamine]",> 50
14,"CC(=O)NC(CO)C(=O)NCc1cn2cc(-c3ccoc3)cc(C(F)(F)F)c2n1 (centres unmarked) [Compound 259, 2-Acetylamino-N-(6-furan-3-yl-8-trifluoromethyl-imidazo[1,2-a]pyridin-2-ylmethyl)-3-hydroxy-propionamide]",> 50
15,"CC(=O)NC(Cc1ccccc1)C(=O)NCc1cn2cc(-c3ccoc3)cc(C(F)(F)F)c2n1 (centres unmarked) [Compound 260, 2-Acetylamino-N-(6-furan-3-yl-8-trifluoromethyl-imidazo[1,2-a]pyridin-2-ylmethyl)-3-phenyl-propionamide]",> 50
16,"CC(=O)NC(C(=O)NCc1cn2cc(-c3ccoc3)cc(C(F)(F)F)c2n1)C(C)C (centres unmarked) [Compound 261, 2-Acetylamino-N-(6-furan-3-yl-8-trifluoromethyl-imidazo[1,2-a]pyridin-2-ylmethyl)-3-methyl-butyramide]",> 50
17,"CC(C(=O)NCc1cn2cc(-c3ccoc3)cc(C(F)(F)F)c2n1)N(C)C (centres unmarked) [Compound 262, 2-Dimethylamino-N-(6-furan-3-yl-8-trifluoromethyl-imidazo[1,2-a]pyridin-2-ylmethyl)-propionamide]",> 50
18,"O=C(NCCc1cn2cc(-c3ccoc3)cc(C(F)(F)F)c2n1)c1cccs1 [Compound 263, Thiophene-2-carboxylic acid [2-(6-furan-3-yl-8-trifluoromethyl-imidazo[1,2-a]pyridin-2-yl)-ethyl]-amide]",> 50
19,"O=C(O)CNC(=O)c1cn2cc(-c3ccoc3)cc(C(F)(F)F)c2n1 [Compound 264, [(6-Furan-3-yl-8-trifluoromethyl-imidazo[1,2-a]pyridine-2-carbonyl)-amino]-acetic acid]",> 50
20,"CC(NC(=O)c1cn2cc(-c3ccoc3)cc(C(F)(F)F)c2n1)C(=O)O (centres unmarked) [Compound 265, 2-[(6-Furan-3-yl-8-trifluoromethyl-imidazo[1,2-a]pyridine-2-carbonyl)-amino]-propionic acid]",> 50
21,"CSCCC(NC(=O)c1cn2cc(-c3ccoc3)cc(C(F)(F)F)c2n1)C(=O)O (centres unmarked) [Compound 266, 2-[(6-Furan-3-yl-8-trifluoromethyl-imidazo[1,2-a]pyridine-2-carbonyl)-amino]-4-methylsulfanyl-butyric acid]",> 50
22,"O=C(NC(CO)C(=O)O)c1cn2cc(-c3ccoc3)cc(C(F)(F)F)c2n1 (centres unmarked) [Compound 267, 2-[(6-Furan-3-yl-8-trifluoromethyl-imidazo[1,2-a]pyridine-2-carbonyl)-amino]-3-hydroxy-propionic acid]",> 50
23,"O=C(c1nc2c(C(F)(F)F)cc(-c3ccoc3)cn2c1Cl)N1CCC(S(=O)(=O)c2ccccc2)CC1 [Compound 268, (4-Benzenesulfonyl-piperidin-1-yl)-(3-chloro-6-furan-3-yl-8-trifluoromethyl-imidazo[1,2-a]pyridin-2-yl)-methanone]",> 50
24,"CC(O)C(NC(=O)c1cn2cc(-c3ccoc3)cc(C(F)(F)F)c2n1)C(=O)O (centres unmarked) [Compound 269, 2-[(6-Furan-3-yl-8-trifluoromethyl-imidazo[1,2-a]pyridine-2-carbonyl)-amino]-3-hydroxy-butyric acid]",> 50
25,"CC(C)CC(NC(=O)c1cn2cc(-c3ccoc3)cc(C(F)(F)F)c2n1)C(=O)O (centres unmarked) [Compound 270, 2-[(6-Furan-3-yl-8-trifluoromethyl-imidazo[1,2-a]pyridine-2-carbonyl)-amino]-4-methyl-pentanoic acid]",> 50
26,"O=C(NC(C(=O)O)c1ccccc1)c1cn2cc(-c3ccoc3)cc(C(F)(F)F)c2n1 (centres unmarked) [Compound 271, [(6-Furan-3-yl-8-trifluoromethyl-imidazo[1,2-a]pyridine-2-carbonyl)-amino]-phenyl-acetic acid]",> 50
